Data on 13 compounds can be found in patent US8871753B2, “Macrocyclic compounds and their use as kinase inhibitors” (Incyte Corporation, priority 2008, dated 2014).

Broadly, the IC50 is the midpoint of a concentration-inhibition curve.

Counter-ions that a name gives are not always drawn.

Assay type in all cases: biochemical
Experiment [1] has as its target T1, human JAK2 (a.a. 828-1132) (Homo sapiens, UniProt O60674).
T1 construct: JAK2 (a.a. 828-1132); His tag (N); made in house; host or cells: insect cells (baculovirus)
In words: In vitro JAK kinase assay (HTRF, phosphorylation of a biotinylated peptide), JAK2. The following applies: Table B1. The method, boiled down:
(§1)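 Phosphorylation of a biotinylated peptide by the JAK kinase domain, detected by HTRF with Eu-Py20 and SA-APC. ATP was 90 μM for JAK1, 30 μM for JAK2 and 3 μM for JAK3. Reactions ran 1 h at room temperature and were stopped with EDTA, followed by 40 min antibody binding.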
Background: TR-FRET usually uses a lanthanide donor and a delayed reading to cut background.

Another experiment concerns the target TYK2 (Homo sapiens, UniProt P29597). In words: TYK2 kinase inhibition (Table A1). The following applies: Table B1.
The target of experiment [2] is T2, human JAK3 (a.a. 781-1124) (Homo sapiens, UniProt P52333).
T2 construct: JAK3 (a.a. 781-1124); His tag (N); made in house; host or cells: insect cells (baculovirus)
T2 sequence (P52333 781-1124): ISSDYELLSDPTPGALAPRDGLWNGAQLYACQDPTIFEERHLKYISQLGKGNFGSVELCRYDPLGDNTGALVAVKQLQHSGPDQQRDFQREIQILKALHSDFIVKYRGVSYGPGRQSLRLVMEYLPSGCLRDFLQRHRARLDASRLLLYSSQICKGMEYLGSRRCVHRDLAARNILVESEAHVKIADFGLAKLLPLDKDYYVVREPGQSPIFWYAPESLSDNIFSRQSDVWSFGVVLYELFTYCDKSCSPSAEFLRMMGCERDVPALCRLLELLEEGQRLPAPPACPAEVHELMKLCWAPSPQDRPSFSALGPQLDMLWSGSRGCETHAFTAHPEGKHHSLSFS
In words: In vitro JAK kinase assay (HTRF, phosphorylation of a biotinylated peptide), JAK3. The following applies: Table B1. The method, boiled down:
as §1

In experiment [3] the target is T3, Recombinant Human Anaplastic Lymphoma Kinase (Homo sapiens, UniProt Q9UM73).
T3 construct: purchased Invitrogen, Carlsbad, Calif
T3 sequence (Q9UM73 19-1620): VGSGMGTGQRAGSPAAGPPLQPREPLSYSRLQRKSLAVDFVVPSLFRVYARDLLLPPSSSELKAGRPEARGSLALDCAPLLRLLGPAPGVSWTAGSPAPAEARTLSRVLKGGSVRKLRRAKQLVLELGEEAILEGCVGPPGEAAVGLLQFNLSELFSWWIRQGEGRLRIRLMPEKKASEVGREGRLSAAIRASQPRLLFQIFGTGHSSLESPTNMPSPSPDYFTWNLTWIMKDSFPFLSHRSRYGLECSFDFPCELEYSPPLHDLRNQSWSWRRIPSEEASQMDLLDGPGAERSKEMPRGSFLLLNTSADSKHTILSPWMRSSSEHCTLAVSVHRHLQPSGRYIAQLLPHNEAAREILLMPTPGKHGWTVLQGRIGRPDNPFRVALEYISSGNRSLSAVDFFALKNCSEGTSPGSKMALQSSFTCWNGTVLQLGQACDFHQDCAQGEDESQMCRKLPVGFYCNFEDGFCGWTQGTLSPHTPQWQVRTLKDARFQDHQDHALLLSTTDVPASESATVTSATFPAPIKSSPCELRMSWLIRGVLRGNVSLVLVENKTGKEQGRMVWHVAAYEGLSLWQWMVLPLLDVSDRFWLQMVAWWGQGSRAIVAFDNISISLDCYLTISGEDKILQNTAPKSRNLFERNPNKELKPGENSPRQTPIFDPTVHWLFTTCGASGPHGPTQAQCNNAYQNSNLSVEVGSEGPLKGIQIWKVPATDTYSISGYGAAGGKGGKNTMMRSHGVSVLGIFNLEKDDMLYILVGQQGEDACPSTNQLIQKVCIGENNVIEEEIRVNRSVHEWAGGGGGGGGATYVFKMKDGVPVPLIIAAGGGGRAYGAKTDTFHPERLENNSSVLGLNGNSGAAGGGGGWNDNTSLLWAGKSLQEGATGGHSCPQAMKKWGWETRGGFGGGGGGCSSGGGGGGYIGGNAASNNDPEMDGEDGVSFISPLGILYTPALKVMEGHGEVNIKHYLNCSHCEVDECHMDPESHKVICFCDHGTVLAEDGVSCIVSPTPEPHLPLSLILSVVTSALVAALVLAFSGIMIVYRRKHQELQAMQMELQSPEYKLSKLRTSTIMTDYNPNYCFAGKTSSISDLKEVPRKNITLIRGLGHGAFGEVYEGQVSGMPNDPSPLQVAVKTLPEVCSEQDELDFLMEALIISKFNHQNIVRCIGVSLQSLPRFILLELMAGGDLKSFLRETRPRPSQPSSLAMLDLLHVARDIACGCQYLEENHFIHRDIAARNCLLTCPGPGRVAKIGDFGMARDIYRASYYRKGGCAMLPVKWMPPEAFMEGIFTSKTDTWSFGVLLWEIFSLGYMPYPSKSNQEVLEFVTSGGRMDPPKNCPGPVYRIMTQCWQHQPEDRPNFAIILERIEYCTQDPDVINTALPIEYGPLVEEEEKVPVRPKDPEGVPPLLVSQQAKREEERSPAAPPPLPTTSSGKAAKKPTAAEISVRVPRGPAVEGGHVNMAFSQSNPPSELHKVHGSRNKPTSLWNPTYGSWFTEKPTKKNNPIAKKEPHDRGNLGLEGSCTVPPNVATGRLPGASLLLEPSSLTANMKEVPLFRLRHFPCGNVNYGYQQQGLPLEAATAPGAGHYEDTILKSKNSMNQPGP
Put plainly: ALK HTRF kinase assay. The following applies: for IC50: Table B1, cells without percent sign; for ALK % of inhibition at a concentration of 500 nM or 1 mM: compound at a concentration of 500 nM or 1 mM (not specified), cells shown as percentage. An outline of the steps:
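Recombinant human ALK phosphorylated a biotinylated synthetic peptide. Phosphotyrosine was detected by TR-FRET between a Eu-labelled anti-phosphotyrosine antibody and streptavidin-allophycocyanin. IC50 values came from fitting signal against inhibitor concentration to a four-parameter logistic equation with variable Hill slope.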

The target in experiment [4] is T4, human JAK1 (a.a. 837-1142) (Homo sapiens, UniProt P23458).
T4 construct: human JAK1 (a.a. 837-1142); His tag (N); made in house; host or cells: insect cells (baculovirus)
T4 sequence (P23458 849-1154): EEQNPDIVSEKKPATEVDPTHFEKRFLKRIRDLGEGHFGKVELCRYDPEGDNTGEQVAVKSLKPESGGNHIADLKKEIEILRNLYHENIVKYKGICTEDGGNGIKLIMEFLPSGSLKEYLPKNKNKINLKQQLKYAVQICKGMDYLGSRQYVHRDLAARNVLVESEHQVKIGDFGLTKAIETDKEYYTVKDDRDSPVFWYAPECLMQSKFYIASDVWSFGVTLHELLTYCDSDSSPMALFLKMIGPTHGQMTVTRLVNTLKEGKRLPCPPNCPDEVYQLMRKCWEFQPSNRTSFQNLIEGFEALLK
Put plainly: In vitro JAK kinase assay (HTRF, phosphorylation of a biotinylated peptide), JAK1. The following applies: Table B1; read-out: JAK1 IC50. An outline of the steps: as §1

T1 sequence (O60674 828-1132): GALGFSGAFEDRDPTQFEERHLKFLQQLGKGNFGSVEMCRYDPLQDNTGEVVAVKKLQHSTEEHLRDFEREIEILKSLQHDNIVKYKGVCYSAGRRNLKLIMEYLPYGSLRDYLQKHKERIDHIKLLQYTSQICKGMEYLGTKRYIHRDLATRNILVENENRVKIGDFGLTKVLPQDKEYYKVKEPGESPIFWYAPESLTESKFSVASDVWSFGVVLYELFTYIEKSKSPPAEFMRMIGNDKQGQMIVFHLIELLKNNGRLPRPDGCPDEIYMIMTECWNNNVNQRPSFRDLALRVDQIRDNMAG
Chain of TYK2 (P29597 whole entry): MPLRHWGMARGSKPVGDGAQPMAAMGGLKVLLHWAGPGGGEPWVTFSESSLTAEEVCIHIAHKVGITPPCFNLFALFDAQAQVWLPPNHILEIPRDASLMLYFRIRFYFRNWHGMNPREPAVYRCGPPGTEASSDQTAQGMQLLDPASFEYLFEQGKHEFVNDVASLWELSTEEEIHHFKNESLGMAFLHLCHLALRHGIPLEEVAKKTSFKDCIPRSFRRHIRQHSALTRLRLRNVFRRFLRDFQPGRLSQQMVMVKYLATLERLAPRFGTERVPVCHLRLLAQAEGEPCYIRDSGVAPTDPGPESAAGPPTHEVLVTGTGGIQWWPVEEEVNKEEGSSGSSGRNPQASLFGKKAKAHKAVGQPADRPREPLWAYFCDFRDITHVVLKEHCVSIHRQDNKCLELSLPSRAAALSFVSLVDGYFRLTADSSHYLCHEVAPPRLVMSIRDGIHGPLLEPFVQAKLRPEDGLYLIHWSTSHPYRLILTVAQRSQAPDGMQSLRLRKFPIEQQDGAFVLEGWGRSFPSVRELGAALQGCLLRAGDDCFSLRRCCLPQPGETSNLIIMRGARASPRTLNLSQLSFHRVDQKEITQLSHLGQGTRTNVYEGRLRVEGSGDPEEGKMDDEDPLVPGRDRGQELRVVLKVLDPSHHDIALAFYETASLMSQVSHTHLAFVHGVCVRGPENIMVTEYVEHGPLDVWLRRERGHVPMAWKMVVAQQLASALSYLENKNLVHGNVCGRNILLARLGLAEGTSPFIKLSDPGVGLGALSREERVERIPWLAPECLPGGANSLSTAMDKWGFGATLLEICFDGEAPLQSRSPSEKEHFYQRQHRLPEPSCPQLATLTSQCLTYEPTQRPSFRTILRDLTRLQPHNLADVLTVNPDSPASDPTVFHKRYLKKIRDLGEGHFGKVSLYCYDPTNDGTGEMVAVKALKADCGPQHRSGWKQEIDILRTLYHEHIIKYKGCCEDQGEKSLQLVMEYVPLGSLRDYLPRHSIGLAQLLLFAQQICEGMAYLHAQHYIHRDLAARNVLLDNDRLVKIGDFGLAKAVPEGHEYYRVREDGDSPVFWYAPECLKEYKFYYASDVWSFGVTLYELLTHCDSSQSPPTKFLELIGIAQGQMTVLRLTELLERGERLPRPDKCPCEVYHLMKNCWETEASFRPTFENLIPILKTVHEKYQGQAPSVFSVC

Turning to `O=C(Nc1ccsc1)Nc1ccc2cc1CCc1cccc(c1)Nc1ncc(Cl)c(n1)N2` [Example B89, N-[6-Chloro-2,4,8,22-tetraazatetracyclo[14.3.1.1(3,7).1(9,13)]docosa-1(20),3(22),4,6,9(21),10,12,16,18-nonaen-12-yl]-N′-3-thienylurea trifluoroacetate], the concentration for half-maximal inhibition (IC50) was 2.9 nM in experiment [1]; 16 nM against TYK2; 40 nM in experiment [2]; more than 1000 nM in experiment [3]; 2.4 nM in experiment [4].

In the case of `Cc1cccc(NC(=O)Nc2ccc3cc2CCc2cccc(c2)Nc2ncc(Cl)c(n2)N3)c1` [Example B90, N-[6-Chloro-2,4,8,22-tetraazatetracyclo[14.3.1.1(3,7).1(9,13)]docosa-1(20), 3(22),4,6,9(21),10,12,16,18-nonaen-12-yl]-N′-(3-methylphenyl)urea trifluoroacetate], the IC50 was 7.7 nM in experiment [1]; 20 nM against TYK2; 73 nM in experiment [2]; more than 1000 nM in experiment [3]; 5.2 nM in experiment [4].

As to `Cc1ccccc1NC(=O)Nc1ccc2cc1CCc1cccc(c1)Nc1ncc(Cl)c(n1)N2` [Example B91, N-[6-Chloro-2,4,8,22-tetraazatetracyclo[14.3.1.1(3,7).1(9,13)]docosa-1(20), 3(22),4,6,9(21),10,12,16,18-nonaen-12-yl]-N′-(2-methylphenyl)urea trifluoroacetate], the concentration for half-maximal inhibition (IC50) is 2.7 nM in experiment [1]; 13 nM against TYK2; 28 nM in experiment [2]; more than 1000 nM in experiment [3]; 2.1 nM in experiment [4].

Turning to `Cc1ccc(NC(=O)Nc2ccc3cc2CCc2cccc(c2)Nc2ncc(Cl)c(n2)N3)cc1` [Example B92, N-[6-Chloro-2,4,8,22-tetraazatetracyclo[14.3.1.1(3,7).1(9,13)]docosa-1(20),3(22),4,6,9(21),10,12,16,18-nonaen-12-yl]-N′-(4-methylphenyl)urea trifluoroacetate], the half-maximal inhibitory concentration (IC50) in experiment [1] was 5.3 nM; against TYK2, 9.7 nM; in experiment [2], 61 nM; in experiment [3], more than 1000 nM; in experiment [4], 4 nM.

In the case of `O=C(NCc1ccccc1)Nc1ccc2cc1CCc1cccc(c1)Nc1ncc(Cl)c(n1)N2` [Example B93, N-benzyl-N′-[6-chloro-2,4,8,22-tetraazatetracyclo[14.3.1.1(3,7).1(9,13)]docosa-1(20),3(22),4,6,9(21),10,12,16,18-nonaen-12-yl]urea trifluoroacetate], the IC50 is 3.4 nM in experiment [1]; 12 nM at TYK2; 43 nM in experiment [2]; more than 1000 nM in experiment [3]; 2.6 nM in experiment [4].

Consider `Cc1noc(C)c1NC(=O)Nc1ccc2cc1CCc1cccc(c1)Nc1ncc(Cl)c(n1)N2` [Example B94, N-[6-Chloro-2,4,8,22-tetraazatetracyclo[14.3.1.1(3,7).1(9,13)]docosa-1(20), 3(22),4,6,9(21),10,12,16,18-nonaen-12-yl]-N′-(3,5-dimethylisoxazol-4-yl)urea trifluoroacetate], for which the IC50 was 3.8 nM in experiment [1]; 13 nM on TYK2; 51 nM in experiment [2]; more than 1000 nM in experiment [3]; 3.1 nM in experiment [4].

As to `N#Cc1cccc(NC(=O)Nc2ccc3cc2CCc2cccc(c2)Nc2ncc(Cl)c(n2)N3)c1` [Example B95, N-[6-Chloro-2,4,8,22-tetraazatetracyclo[14.3.1.1(3,7).1(9,13)]docosa-1(20), 3(22),4,6,9(21),10,12,16,18-nonaen-12-yl]-N′-(3-cyanophenyl)urea trifluoroacetate], the IC50 was 4.1 nM in experiment [1]; 7.8 nM at TYK2; 67 nM in experiment [2]; more than 1000 nM in experiment [3]; 2.1 nM in experiment [4].

Consider `N#Cc1ccc(NC(=O)Nc2ccc3cc2CCc2cccc(c2)Nc2ncc(Cl)c(n2)N3)cc1` [Example B96, N-[6-Chloro-2,4,8,22-tetraazatetracyclo[14.3.1.1(3,7).1(9,13)]docosa-1(20), 3(22),4,6,9(21),10,12,16,18-nonaen-12-yl]-N′-(4-cyanophenyl)urea trifluoroacetate], for which the IC50 in experiment [1] is 6 nM; on TYK2, 12 nM; in experiment [2], 45 nM; in experiment [3], more than 1000 nM; in experiment [4], 1 nM.

As to `CCc1ccccc1NC(=O)Nc1ccc2cc1CCc1cccc(c1)Nc1ncc(Cl)c(n1)N2` [Example B97, N-[6-Chloro-2,4,8,22-tetraazatetracyclo[14.3.1.1(3,7).1(9,13)]docosa-1(20), 3(22),4,6,9(21),10,12,16,18-nonaen-12-yl]-N′-(2-ethylphenyl)urea trifluoroacetate], the IC50 in experiment [1] is 9 nM; against TYK2, 16 nM; in experiment [2] it was 35 nM; in experiment [4], 3.9 nM. The “ALK % of inhibition at a concentration of 500 nM or 1 mM” value (“ALK % of inhibition” below) in experiment [3] came out at 40%.

With `CCc1ccc(NC(=O)Nc2ccc3cc2CCc2cccc(c2)Nc2ncc(Cl)c(n2)N3)cc1` [Example B98, N-[6-Chloro-2,4,8,22-tetraazatetracyclo[14.3.1.1(3,7).1(9,13)]docosa-1(20), 3(22),4,6,9(21),10,12,16,18-nonaen-12-yl]-N′-(4-ethylphenyl)urea trifluoroacetate], the IC50 was 26 nM in experiment [1], 38 nM at TYK2, 91 nM in experiment [2] and 13 nM in experiment [4]. In experiment [3], the “ALK % of inhibition” value turned out to be 41%.

Take `CCc1cccc(NC(=O)Nc2ccc3cc2CCc2cccc(c2)Nc2ncc(Cl)c(n2)N3)c1` [Example B99, N-[6-Chloro-2,4,8,22-tetraazatetracyclo[14.3.1.1(3,7).1(9,13)]docosa-1(20), 3(22),4,6,9(21),10,12,16,18-nonaen-12-yl]-N′-(3-ethylphenyl)urea trifluoroacetate]: the IC50 in experiment [1] was determined as 20 nM; against TYK2 it was 33 nM; in experiment [2], 151 nM; in experiment [4], 7 nM. Moreover, the “ALK % of inhibition” value in experiment [3] is given as 37%.

In the case of `COc1cccc(NC(=O)Nc2ccc3cc2CCc2cccc(c2)Nc2ncc(Cl)c(n2)N3)c1` [Example B100, N-[6-Chloro-2,4,8,22-tetraazatetracyclo[14.3.1.1(3,7).1(9,13)]docosa-1(20), 3(22),4,6,9(21),10,12,16,18-nonaen-12-yl]-N′-(3-methoxyphenyl)urea trifluoroacetate], the half-inhibitory concentration (IC50) in experiment [1] is 4.7 nM; against TYK2 it was 8.7 nM; in experiment [2], 40 nM; in experiment [4], 0.92 nM. Besides, the “ALK % of inhibition” value in experiment [3] is 44%.

As to `COc1ccc(NC(=O)Nc2ccc3cc2CCc2cccc(c2)Nc2ncc(Cl)c(n2)N3)cc1` [Example B101, N-[6-Chloro-2,4,8,22-tetraazatetracyclo[14.3.1.1(3,7).1(9,13)]docosa-1(20), 3(22),4,6,9(21),10,12,16,18-nonaen-12-yl]-N′-(4-methoxyphenyl)urea trifluoroacetate], the IC50 in experiment [1] came out at 10 nM; against TYK2, 19 nM; in experiment [2] it was 26 nM; in experiment [4], 4.5 nM. Moreover, in experiment [3], the “ALK % of inhibition” value is reported as 39%.
